Tests used:
[1] = Solubility of DHEA at ambient temperature in different solvents (HPLC of supernatant); type: physicochemical; details: ambient temperature (25° C.), after 24 hours
Description: The solubility of DHEA was evaluated at ambient temperature in different solvents. For this purpose the DHEA was dispersed in excess in the solvent in question, which had been brought to 60° C. beforehand. This temperature was maintained for one hour, with stirring using a magnetic bar. The suspension was subsequently returned to ambient temperature (25° C.). After 24 hours the suspension was centrifuged in order to remove the undissolved DHEA crystals. The supernatant was taken and checked for the absence of DHEA crystals by cross-polarized light microscopy. This supernatant was subsequently analysed by HPLC. The amount of DHEA detected is taken to correspond to its maximum solubility in the solvent in question.

fibroblast = details: cited from earlier work
human keratinocytes = details: cited from earlier work
skin = details: rat; cited from earlier work

C[C@]12CC[C@H](O)CC1=CC[C@@H]1[C@@H]2CC[C@]2(C)C(=O)CC[C@@H]12 [DHEA, dehydroepiandrosterone]
DHEA solubility ([1]; solvent Dipropylene glycol): 10.48% by weight | DHEA solubility ([1]; solvent Glycerol): 0.15% by weight | DHEA solubility ([1]; solvent PEG-400): 3.67% by weight | DHEA solubility ([1]; solvent Propylene glycol): 5.88% by weight | DHEA solubility ([1]; solvent Sorbitol): 0.05% by weight

C[C@]12CC[C@H](O)CC1=C[C@@H](O)[C@@H]1[C@@H]2CC[C@]2(C)C(=O)CC[C@@H]12 [7α-hydroxy-DHEA]
fibroblast proliferation (fibroblast): increase | viability of human keratinocytes (human keratinocytes): increase | elastin content and collagen content of the skin (skin): increases | thickness of the dermis (skin): increases

— patent US20040186085A1, “Composition containing a steroid and a glycol” (priority 2001, published 2004)
